Assay [1] deals with T1, human cytosolic sialidase hNEU2 (Homo sapiens, UniProt Q9Y3R4).
T1 construct: made in house
Briefly: Sialidase substrate specificity of Leg glycosides (HPLC/capillary electrophoresis), hNEU2. It counts as biochemical. Conditions: 37° C., 16 hs, pH 5.0.

For a further assay, the target named is T2, SpNanA (Streptococcus pneumoniae, UniProt P62575).
T2 construct: made in house
The assay is described as follows: Sialidase substrate specificity of Leg glycosides (HPLC/capillary electrophoresis), SpNanA. Conditions: 37° C., 16 hs, pH 6.0. It counts as biochemical.

Assay [2] concerns the target C. perfringens sialidase (CpNanH) (Clostridium perfringens, UniProt P10481). The format is biochemical. Conditions: 37° C., 16 hs, pH 5.0.
Assay [3] has as its target T3, PmST1 (α2-3-sialidase activity) (Pasteurella multocida, UniProt Q15KI8).
T3 construct: made in house
Briefly: Kinetic studies for PmST1 α2-3-sialidase activity (HPLC). It counts as biochemical. Conditions: 0.4 mM CMP. As for the experimental part: Kinetic studies for PmST1 were performed in duplicates at 37° C. for 10 min. […] The reactions were stopped by adding 20 μL of pre-chilled ethanol. The mixtures were then centrifuged and the supernatants were analyzed by the HPLC system described above for sialidase substrate specificity studies assays. Apparent kinetic parameters were obtained by varying substrate concentrations from 0.1-40 mM (0.1, 0.2, 0.4, 1, 2, 4, 10, 20, and 40 mM) and fitting the data (the average values of duplicate assay results) into the Michaelis-Menten equation using Grafit 5.0.

For another assay, the target named is T4, V. cholerae sialidase (Vibrio cholerae serotype O1, UniProt P0C6E9).
T4 construct: purchased Roche
The assay is described as follows: Sialidase substrate specificity of Leg glycosides (HPLC/capillary electrophoresis), V. cholerae sialidase. It counts as biochemical. Conditions: pH 5.5.

A further assay has as its target SpNanC (Streptococcus pneumoniae, UniProt A0A0H2UQE4). The assay is described as follows: Sialidase substrate specificity of Leg glycosides (HPLC/capillary electrophoresis), SpNanC. The format is biochemical. As to conditions: 37° C., 16 hs, pH 6.5.
A further assay deals with T5, BiNanH2 (Bifidobacterium longum, UniProt A0ACD7UU12).
T5 sequence (A0ACD7UU12 1-394): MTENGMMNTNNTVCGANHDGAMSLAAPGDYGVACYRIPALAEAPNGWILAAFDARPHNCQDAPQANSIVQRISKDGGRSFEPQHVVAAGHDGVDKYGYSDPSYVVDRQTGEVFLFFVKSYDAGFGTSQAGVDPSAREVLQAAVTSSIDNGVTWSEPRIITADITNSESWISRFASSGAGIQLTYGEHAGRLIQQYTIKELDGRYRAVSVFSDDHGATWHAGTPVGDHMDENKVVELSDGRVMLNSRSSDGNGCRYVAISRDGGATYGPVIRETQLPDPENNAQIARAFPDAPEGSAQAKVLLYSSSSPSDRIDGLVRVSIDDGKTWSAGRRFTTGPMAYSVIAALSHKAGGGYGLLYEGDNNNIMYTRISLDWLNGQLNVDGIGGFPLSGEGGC
Briefly: Sialidase substrate specificity of Leg glycosides (HPLC/capillary electrophoresis), BiNanH2. It counts as biochemical, Bifidobacterium infantis. Conditions: 37° C., 16 hs, pH 5.0.

The test system of another assay is A. ureafaciens sialidase. Briefly: Sialidase substrate specificity of Leg glycosides (HPLC/capillary electrophoresis), A. ureafaciens sialidase. The format is biochemical, Arthrobacter ureafaciens. As to conditions: pH 5.5.
A further assay concerns the target T6, SpNanB (Streptococcus pneumoniae serotype 4, UniProt Q54727, E68D/K536E/K577E/N393D/S59P).
T6 construct: made in house
The assay is described as follows: Sialidase substrate specificity of Leg glycosides (HPLC/capillary electrophoresis), SpNanB. It counts as biochemical. Conditions: 37° C., 16 hs, pH 6.0.

Assay [4] relates to BJA-B K20 cells. The assay is described as follows: Feeding of free sialic acids to BJA-B K20 cells, PToV probes, flow cytometry. As to conditions: 1 mM free sialic acid, three days of feeding. It counts as cell-based, human.
The next assay relates to influenza C virus. Conditions: background statement; cited from earlier work.
Assay [5] relates to BJA-B K20 cells. The assay is described as follows: Feeding of free sialic acids to BJA-B K20 cells, DMB derivatization and HPLC of membrane sialic acids. As to conditions: 1 mM for 3 days; sialic acids released with Vibrio cholerae neuraminidase.
The next assay relates to human CD22-Fc/Siglec-2. Briefly: Feeding of free sialic acids to BJA-B K20 cells, probing with human CD22-Fc, flow cytometry. The format is cell-based. As to conditions: 3 mM, 3 days of feeding. On the procedure:
Cell Culture and Sugar Supplementation.
Flow Cytometry. Cells were washed with PBS and incubated with 10 μg/mL of PToV probes in PBS with 1% BSA and 10 mM EDTA for 30 minutes on ice. Subsequently, cells were washed with PBS and incubated with PE goat anti-human IgG antibody for 30 minutes on ice. After an additional washing step, the cells were analyzed by FACSCalibur (BD).
After 3 days of feeding, BJA-B K20 cells were probed with human CD22-Fc/Siglec-2 to detect ligands (FIG. 7). […] However, when the cells were grown in the presence of Neu5Ac9NAc, the expression of the CD22 ligand was minimal (FIG. 7C). […] This supports previous observations that human CD22-Fc recognizes α2-6-linked sialosides with Neu5Ac or N-glycolylneuraminic acid (Neu5Gc) as the preferred naturally existing sialic acid form and 9-O-acetyl modification on sialic acid blocks the binding.

T1 sequence (Q9Y3R4 whole entry): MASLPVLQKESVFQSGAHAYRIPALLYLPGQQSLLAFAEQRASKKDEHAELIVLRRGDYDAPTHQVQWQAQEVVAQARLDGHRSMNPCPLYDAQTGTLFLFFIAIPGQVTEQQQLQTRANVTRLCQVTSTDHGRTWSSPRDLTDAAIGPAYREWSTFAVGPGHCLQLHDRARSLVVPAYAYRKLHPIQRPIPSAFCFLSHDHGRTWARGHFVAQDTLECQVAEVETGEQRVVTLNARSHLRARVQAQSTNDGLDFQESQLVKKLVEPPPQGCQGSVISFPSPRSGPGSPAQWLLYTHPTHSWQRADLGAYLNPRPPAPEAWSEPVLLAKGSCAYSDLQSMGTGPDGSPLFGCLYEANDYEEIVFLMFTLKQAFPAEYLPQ

With `CC(=O)N[C@@H]1C(O)C[C@](OC2C(O)[C@H](Oc3ccc([N+](=O)[O-])cc3)OC(CO)[C@@H]2O)(C(=O)O)OC1[C@H](NC(C)=O)[C@@H](C)O` (stereo partly drawn) [3-19, Leg5,7Ac2α2-3GalβpNP], the “activity of hNEU2 for the compound” value in [1] is “did not show activity”. The “activity of SpNanA for the compound” value at SpNanA is listed as “did not show activity”. In addition, the “activity of C. perfringens sialidase (CpNanH) for the compound” value in assay [2] is listed as “did not show activity”. For the same compound, the “α2-3-sialidase activity of PmST1, fold less efficient than for Neu5Acα2-3GalβpNP” value in assay [3] is “about 30 fold”. The “activity of V. cholerae sialidase for the compound” value on V. cholerae sialidase is “did not show activity”. Besides, the “activity of SpNanC for the compound” value on SpNanC was “did not show activity”. The “activity of BiNanH2 for the compound” value at BiNanH2 is recorded as “did not show activity”. In addition, the “activity of A. ureafaciens sialidase for the compound” value with A. ureafaciens sialidase is recorded as “did not show activity”. For the same compound, on SpNanB, the “activity of SpNanB for the compound” value was “did not show activity”.
On to `CC(=O)NC[C@@H](O)[C@@H](O)[C@@H]1OC(O)(C(=O)O)C[C@H](O)[C@H]1NC(C)=O` (stereo partly drawn) [Neu5Ac9NAc, 5,9-Diacetamido-3,5,9-Trideoxy-D-glycero-D-galacto-2-nonulopyranosylonic Acid], for which the “cell surface incorporation detected with PToV probe” value with BJA-B K20 cells [4] is reported as “detected on the cell surface”. For the same compound, the “binding to influenza C virus and fate under hemagglutinin-esterase” value with influenza C virus is “mimic Neu5,9Ac2 in binding to influenza C virus without being destroyed by esterase activity”. Moreover, the “incorporation on the cell membrane (DMB-HPLC)” value in the assay on BJA-B K20 cells [5] is “showed incorporation”. The “expression of CD22 ligand on fed cells” value in the assay on human CD22-Fc/Siglec-2 was “minimal”.

The record behind these values is patent US12162901B2, “N-acetylated sialic acids and related sialosides” (priority 2016, dated 2024).
